The record followed here is patent US6391908B1, “Oxime amide indole type sPLA2 inhibitors” (Eli Lilly and Company, priority 1998, dated 2002).

The assay concerns the target T1, recombinant human secreted phospholipase A2 (Homo sapiens, UniProt P14555).
T1 sequence (P14555 21-144): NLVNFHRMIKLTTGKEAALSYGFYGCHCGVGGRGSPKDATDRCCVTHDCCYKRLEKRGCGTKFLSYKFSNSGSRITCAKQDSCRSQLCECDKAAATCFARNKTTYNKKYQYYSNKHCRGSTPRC
The assay is described as follows: chromogenic assay for inhibitors of recombinant human secreted phospholipase A2. Format: biochemical. From the text: The following chromogenic assay procedure was used to identify and evaluate inhibitors of recombinant human secreted phospholipase A2. The assay described herein has been adapted for high volume screening using 96 well microtiter plates. A general description of this assay method is found in the article, “Analysis of Human Synovial Fluid Phospholipase A2 on Short Chain Phosphatidylcholine-Mixed Micelles: Development of a Spectrophotometric Assay Suitable for a Microtiterplate Reader”, by Laure J. Reynolds, Lori L. Hughes, and Edward A Dennis, Analytical Biochemistry, 204, pp. 190-197, 1992 (the disclosure of which is incorporated herein by reference): […]
A measured volume of racemic dipheptanoyl thio PC supplied in chloroform at a concentration of 100 mg/ml is taken to dryness and redissolved in 10 millimolar TRITON X-100™ nonionic detergent aqueous solution. […]
5. Read absorbance of wells at 405 nanometers with an automatic plate reader.
All compounds were tested in triplicate. […] Compounds initially found to be active were reassayed to confirm their activity and, if sufficiently active, IC50 values were determined. […] In all cases, % inhibition measured at 405 nanometers generated by enzyme reactions containing inhibitors relative to the uninhibited control reactions was determined. […] IC50 were determined by plotting log concentration versus inhibition values in the range from 10-90% inhibition.

For orientation: IC50 means the concentration at which inhibition is half-maximal. For `CCc1c(/C(=N/O)C(N)=O)c2c(OCC(=O)O)cccc2n1Cc1ccccc1` [Example 1], the “activity in inhibiting sPLA2 (in words)” value is “highly active”. Moreover, for the setting “diheptanoyl thio-PC substrate, pH 7.5, 40° C. for 30 minutes, absorbance at 405 nanometers, read-out: Inhibition of human secreted PLA2 IC50 ± mean deviation (3-4 tests)”, the 50% inhibitory concentration (IC50) was determined as 49 nM.
